Tests used:
[1] = molecular target: T1, human glycogen phosphorylase a (Homo sapiens, UniProt P06737); experiment: Glycogen phosphorylase a activity test; type: biochemical; conditions: inhibition of GPa in vitro, reverse direction (glycogen synthesis from glucose 1-phosphate, released inorganic phosphate, absorption at 820 nm)
T1 sequence (P06737 1-847): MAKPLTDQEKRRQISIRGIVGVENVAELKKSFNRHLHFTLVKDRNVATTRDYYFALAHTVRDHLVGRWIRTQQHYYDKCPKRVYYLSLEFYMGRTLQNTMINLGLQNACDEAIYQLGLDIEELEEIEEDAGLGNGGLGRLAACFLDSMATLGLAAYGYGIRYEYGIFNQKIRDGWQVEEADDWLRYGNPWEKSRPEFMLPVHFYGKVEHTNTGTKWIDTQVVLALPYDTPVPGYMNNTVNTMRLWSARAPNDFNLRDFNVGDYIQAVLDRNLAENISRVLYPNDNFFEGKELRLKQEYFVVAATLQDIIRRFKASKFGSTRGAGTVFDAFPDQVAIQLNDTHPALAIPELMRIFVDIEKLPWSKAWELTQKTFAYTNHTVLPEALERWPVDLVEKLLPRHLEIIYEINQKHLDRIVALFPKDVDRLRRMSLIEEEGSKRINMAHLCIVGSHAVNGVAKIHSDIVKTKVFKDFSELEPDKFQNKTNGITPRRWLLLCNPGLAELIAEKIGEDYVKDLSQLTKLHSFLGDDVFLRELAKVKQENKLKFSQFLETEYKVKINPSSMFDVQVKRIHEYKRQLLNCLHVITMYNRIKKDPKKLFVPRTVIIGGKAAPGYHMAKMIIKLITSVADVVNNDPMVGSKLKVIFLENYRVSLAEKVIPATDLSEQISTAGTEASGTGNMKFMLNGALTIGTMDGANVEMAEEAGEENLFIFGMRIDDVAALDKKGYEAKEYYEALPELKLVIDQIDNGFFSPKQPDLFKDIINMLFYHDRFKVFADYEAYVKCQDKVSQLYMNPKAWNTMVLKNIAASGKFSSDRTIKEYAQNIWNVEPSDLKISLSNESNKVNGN

| Structure (SMILES) | melting point | IC50 [1] [nM] |
| --- | --- | --- |
| NC(=O)c1sc(-c2ccccc2)cc1NC(=O)NC(=O)c1cc(F)c(F)cc1Cl [Example 17] | > 300 °C | 30 |
| O=C(NC(=O)c1ccc(F)cc1Cl)Nc1ccsc1-c1nnn[nH]1 [Example 33] | 219.8 °C | 80 |
| O=C(NC(=O)c1cc(F)c(F)cc1Cl)Nc1ccsc1-c1n[nH]c(=O)o1 [Example 1d, 1-(2-Chloro-4,5-difluorobenzoyl)-3-[2-(5-oxo-4,5-dihydro[1,3,4]oxadiazol-2-yl)thiophen-3-yl]urea] | 236.1 °C | 30 |
| NC(=O)c1sc(-c2cccs2)cc1NC(=O)NC(=O)c1cc(F)c(F)cc1Cl [Example 23] | > 250 °C (dec.) | 50 |
| NC(=O)c1sccc1NC(=O)NC(=O)c1cc(F)c(F)cc1Cl [Example 6] |  | 700 |
| COc1ccc(-c2cc(NC(=O)NC(=O)c3cc(F)c(F)cc3Cl)c(C(N)=O)s2)cc1 [Example 24] | > 300 °C | 40 |
| O=C(NC(=O)c1cc(F)c(F)cc1Cl)Nc1cc(-c2ccccc2)sc1C(=O)O [Example 21] | 226.5 °C | 10 |
| CC(=O)c1sc(-c2ccccc2)cc1NC(=O)NC(=O)c1cc(F)c(F)cc1Cl [Example 15] | 204.8 °C | 170 |
| O=C(NC(=O)c1cc(F)c(F)cc1Cl)Nc1cscc1-c1ccccc1 [Example 30] |  | 1400 |

Now from value to compound:

| melting point | IC50 [1] [nM] | Structure (SMILES) |
| --- | --- | --- |
| 227.7 °C | 10 | O=C(NC(=O)c1cc(F)c(F)cc1Cl)Nc1cc(-c2ccc(F)cc2)sc1C(=O)O [Example 3b, 3-[3-(2-Chloro-4,5-difluorobenzoyl)ureido]-5-(4-fluorophenyl)thiophene-2-carboxylic acid] |
| 219.9 °C | 110 | O=C(NC(=O)c1cc(F)c(F)cc1Cl)Nc1cc(S(=O)(=O)N2CCCCC2)sc1N1CCC(C(=O)O)CC1 [Example 4d, 1-[3-[3-(2-Chloro-4,5-difluorobenzoyl)ureido]-5-(piperidine-1-sulfonyl)-thiophen-2-yl]piperidine-4-carboxylic acid] |
|  | 450 | Nc1nnc(-c2sccc2NC(=O)NC(=O)c2cc(F)c(F)cc2Cl)o1 [Example 2c, 1-[2-(5-Amino[1,3,4]oxadiazol-2-yl)thiophen-3-yl]-3-(2-chloro-4,5-difluorobenzoyl)urea] |

— patent US7196114B2, “Substituted 3-(benzoylureido) thiophene derivatives, processes for preparing them and their use” (Sanofi-Aventis Deutschland GmbH, priority 2003, dated 2007)
